In patent US20100280052A1, “USE OF ANTIVIRALS TO TREAT CMV-RELATED CONDITIONS” (priority 2007, published 2010):

Tests used:
[1] = prodrug compared with penciclovir; cited from earlier work
CMV-specific T cells [2] = experiment: CMV-specific T cells detected by Interferon-gamma expression in blood of patients taking ACV or VCV (Example 1, FIGS. 9, 10); format: in vivo, human
CMV-specific T cells [3] = experiment: Elispot analysis of antigen-specific T cells after CMV lysate stimulation (Example 1, FIG. 11); format: in vivo, human; conditions: patients taking ACV or VCV vs healthy CMV seropositive donors
Experimental: (§1) The CMV-specific immune response was measured in a cohort of CMV seropositive or seronegative donors who are taking acyclovir or valaciclovir. This was compared to an age-matched control cohort. […] Comprehensive analysis of (1) the total T cell profile of these donors, and (2) their CMV-specific response, was performed. The results were compared to an age-matched control group of CMV seropositive or seronegative donors.
A reduced Elispot response to CMV is seen in patients taking ACV or VCV.

CD4+ T cells = experiment: CD27, CD28, CD57 antibody staining of peripheral blood CD4+ T cells (Example 1, FIGS. 12-15); format: in vivo, human; conditions: CMV-seropositive patients taking ACV or VCV vs healthy donors; for percentage of CD4+ T cells which have lost expression of CD27: FIGS. 12, 13; for percentage of CD4+ T cells which have lost expression of CD28: FIGS. 12, 14; for percentage of CD4+ T cells which have gained expression of CD57: FIGS. 12, 15
Experimental: as §1
In FIG. 12, CD4+ T cells in peripheral blood of 35 CMV-seropositive or seronegative healthy donors were stained with antibodies to CD27, CD28 or CD57. These are shown on the left panel. A similar analysis was performed on patients taking acyclovir or valacyclovir (right hand panel). It can be seen that the percentage of CD4 + T cells which have lost expression of CD27 or CD28, or have gained expression of CD57, is lower in CMV-seropositive patients who are taking ACV or VCV in comparison to healthy donors.
Referring to FIG. 13, CD4+ T cells in peripheral blood of 25 healthy donors or patients taking ACV or VCV were stained with antibodies to CD27.
Referring to FIG. 14, CD4+ T cells in peripheral blood of 25 healthy donors or patients taking ACV or VCV were stained with antibodies to CD28.
Referring to FIG. 15, CD4+ T cells in peripheral blood of 25 healthy donors or patients taking ACV or VCV were stained with antibodies to CD57.

CD8+ T cells = experiment: CD57 antibody staining of peripheral blood CD8+ T cells (Example 1, FIG. 16); format: in vivo, human; conditions: CMV seropositive donors, patients taking drug vs healthy controls
Experimental: as §1

[4] = system: CMV-specific CD4+ T cells; experiment: CD4+ T cells producing interferon-gamma after CMV lysate stimulation, single individual (Example 2, FIG. 17); format: in vivo, human; conditions: before, 3 and 14 months after treatment with acyclovir 40 mg b.d.
Text: Referring to FIG. 17, the blood was stimulated with CMV lysate, and the percentage of CD4+ T cells which produce interferon-gamma in response to antigen measured. It can be seen that this percentage was reduced on treatment.

CMV-specific T cells [5] = experiment: Interferon-gamma Elispot analysis of CMV-specific T cells, single individual (Example 2, FIG. 18); format: in vivo, human; conditions: before, 3 and 14 months after treatment with acyclovir 40 mg b.d., CMV lysate or pp65 or IE-1 peptide pools
Text: Finally, referring to FIG. 18, the blood was stimulated with CMV lysate, or peptide pools from CMV pp65 or IE-1, and the number of CMV-specific T cells was detected using interferon-gamma Elispot analysis. It can be seen that the magnitude of this response was reduced by treatment.

CMV [6] = conditions: cited from earlier work
[7] = cited from earlier work; for side effects: at common doses
CMV [8] = conditions: ganciclovir and valganciclovir compared with acyclovir and valacyclovir; cited from earlier work
[9] = FIG. 9, CMV seropositive patients on ACV 400 mg b.d. or VCV 500 mg o.d. or b.d. vs healthy control CMV seropositive donors, CMV lysate or pp65 and IE-1 peptide pools
[10] = FIG. 10, time-dependent effect, ACV 400 mg b.d. or VCV 500 mg o.d. or b.d., CMV lysate

## CC(=O)OCC(CCn1cnc2cnc(N)nc21)COC(C)=O [Famciclovir]
[1]
  bioavailability: improved bioavailability

## Nc1nc2c(ncn2COCCO)c(=O)[nH]1 [acyclovir, 9-(2-hydroxyethoxymethyl)guanine]
CMV-specific T cells [2]; [9]
  number of CMV-specific T cells (Interferon-gamma expression): reduced
CMV-specific T cells [2]; [10]
  number of CMV-specific T cells (Interferon-gamma expression): reduced
CMV-specific T cells [3]
  Elispot response to CMV: reduced
CD4+ T cells
  percentage of CD4+ T cells which have lost expression of CD27: reduced
  percentage of CD4+ T cells which have lost expression of CD28: reduced
  percentage of CD4+ T cells which have gained expression of CD57: reduced
CD4+ T cells; listed as ACV
  percentage of CD4+ T cells which have lost expression of CD27: lower
  percentage of CD4+ T cells which have lost expression of CD28: lower
  percentage of CD4+ T cells which have gained expression of CD57: lower
CD8+ T cells
  percentage of CD8+ T cells which express CD57: reduced
[4]
  percentage of CD4+ T cells which produce interferon-gamma in response to antigen: reduced
CMV-specific T cells [5]
  number of CMV-specific T cells (magnitude of interferon-gamma Elispot response): reduced
CMV [6]
  activity against CMV replication in vitro: minimal activity
[7]
  side effects: nausea, vomiting, diarrhoea and/or headaches

## Nc1nc(O)c2ncn(COC(CO)CO)c2n1 [ganciclovir]
CMV [8]
  activity against CMV: markedly improved activity
[7]; human
  carcinogenicity, teratogenicity, mutagenicity: potential human carcinogen, teratogen, and mutagen

## Nc1nc2c(ncn2CCC(CO)CO)c(=O)[nH]1 [penciclovir]
CMV [8]
  activity against CMV: minimal activity
[7]; treatment of herpesvirus infections
  side effects compared with acyclovir: fewer side effects

## CC(C)[C@H](N)C(=O)OCCOCn1cnc2c(=O)[nH]c(N)nc21 [valacyclovir]
CMV-specific T cells [2]; [9]
  number of CMV-specific T cells (Interferon-gamma expression): reduced
CMV-specific T cells [2]; [10]
  number of CMV-specific T cells (Interferon-gamma expression): reduced
CMV-specific T cells [3]
  Elispot response to CMV: reduced
CD4+ T cells
  percentage of CD4+ T cells which have lost expression of CD27: reduced
  percentage of CD4+ T cells which have lost expression of CD28: reduced
  percentage of CD4+ T cells which have gained expression of CD57: reduced
CD4+ T cells; listed as VCV
  percentage of CD4+ T cells which have lost expression of CD27: lower
  percentage of CD4+ T cells which have lost expression of CD28: lower
  percentage of CD4+ T cells which have gained expression of CD57: lower
CD8+ T cells
  percentage of CD8+ T cells which express CD57: reduced
[7]
  side effects: nausea, vomiting, diarrhoea and/or headaches

## CC(C)[C@H](N)C(=O)OCC(CO)OCn1cnc2c(=O)nc(N)[nH]c21 (stereo partly shown) [valganciclovir]
CMV [8]
  activity against CMV: markedly improved activity
